Where a SMILES comes first, the peptide text is derived from it.
Columns and labels:
[1] = type: binding; settings: LCG displacement in 10 mM Hepes, pH 7.0, 25 °C; fluorescence; error = SD of nonlinear fit, n = 1
Experimental: Fluorescence titrations were performed as previously described and the resulting titration curves we re an al yz ed usi ng established pro cedur es . Competitive titrations were eithe r anal yz ed with a fitting function assuming 1:1 host-competitor complexes[3] or with a fitting function involving hi gher complex es with more than on e h ost bound per peptide.[4] In the latter c ase, an identical binding affinity is assumed for all binding sites. […]
Figure S1. a) Fluorescence titration of 0.5 µM LCG ( λex = 369 n m) with varying concentrations of CX4 in 10 mM Hepes, pH 7.0, 25 °C .b) Respective titration curve ( λem = 502 nm) with fitted line . […]
Figure S2. a) Competitive fluorescence titration wit h 0.5 µM LCG, 1 µM CX4 ( λex = 369 nm) and varying concentrations of penetratin in 10 mM Hepes, pH 7.0, 25 °C . b) Respective titration c ur ve (λem = 502 nm) with fitted line .
(also on this page, place not known: analyzed using procedures. were either analyzed host -competitor higher complexes one host case, 700 Intensity Intensity (λex °C. line. 650 0 Intensity 0 Intensity b) curve (λem nm) with line.)

[2] = Dual-channel assay, CX4/LCG channel, POPC vesicles; type: in vitro ADME; settings: 175 mM glucose; for EC50: 12.5 µM POPC⸧CX4/LCG-LUVs and 12.5 µM POPC⸧CF-LUVs in 10 mM Hepes, pH 7.5, 25 °C, λexc 369/λem 475 nm, error = SD of fit, n = 1; for membrane activity in the CX4/LCG channel compared with the CF channel: dual-channel, seven independent POPC LUV batches (n = 7), penetratin 15 µM, Pep-1 10 µM, LRLLRW 30 µM, TP10 0.15 µM, 10 mM Hepes, pH 7.5, t-test/ANOVA p < 0.001, melittin: Figure S35 and Table S9
Excerpt: With the established identical extravesicular conditions in both assays, we further envisaged a simultaneous measurement of both assays within the same solution to enhance the comparability of the measurements. This became possible after optimization of the excitation and emission wavelengths. […] A further optimization was required, because the dye concentrations in the CF assay and the CX4/LCG assay are largely different.^[ [51], [52] ^] Consequently, simultaneous monitoring requires the detection of a low amount of LCG in the presence of a high concentration of the much more brightly fluorescent CF, which challenges the dynamic range of a typical fluorescence spectrometer in a dual‐channel measurement. To reduce the fluorescence read‐out of CF, the excitation wavelength was shifted from the absorption maximum at ca. 490 nm to 525 nm, where CF has a much lower absorbance, and the emission in the CF channel was shifted from its maximum at ca. 515 nm to 545 nm to further reduce the fluorescence of CF. To maintain a high LCG fluorescence, excitation was performed at the absorption maximum at 369 nm. Since CF has a residual absorbance at this excitation wavelength, emission in the LCG channel was monitored at 475 nm instead of 502 nm to eliminate spill‐over of CF fluorescence into the LCG channel. […]
Time-dep endent fluores cence intensit y traces, I (t), were subsequentl y normalized to fractional intensities, If(t), using equation (1) and the concentration- dependent fractional intensities just before the addition of th e calibration co cktail, I f, w ere then normaliz ed to fr actional membran e activities, Y, using equation (2). The fractional membrane activities, Y, were subsequently plotted against the peptide concentration, c, and anal ysed using the Hill equation (3) to obtain the effective molar concentration, EC 50, and the Hill coefficient, n. For peptides with too low activity to determine Y max ex perimentall y, Y max was fixed at 1.0 during fitting. […]
Dual-Channel Measurements
Vesicles w ere prep ared a s described abov e (se e en try (4) in Table S2 and entry (3) in Table S3) and eluted with freshl y prepared 10 mM Hepes, 175mM glucos e, pH 7.5 i n the size exclusion chromatograph y. For the measurements, an approp riate volume o f the liposome stock solutions was diluted to 2m L in a 10× 10 mm PS cuvette wi th 10 mM Hep es bu ffer and 175 mM glucos e at pH 7.5 to afford 12.5µM POPC ⊃CX4/LCG-LUVs and 12.5 µM POPC⊃CF-LUVs (25 µM POPC total). The cuvette was placed into a thermostatted fluorimeter sample holder at 25.0 °C and gentl y stirred at 300 rpm. The fluorescence intensity w as simultaneous l y r eco rded in the CF chann el ( λ exc = 525 nm, λ em = 545 nm) and in the LCG channel ( λ exc = 369 nm, λ em = 475 nm) with an ex citation slit width of 5 nm and an emission slit width of 5 n m during addition of 20 µL peptide stock solution of varying concentrations at 60 s and 20 µL of a calibration

SMILES | K a, binding constant of peptide to CX4 [1] | EC50 [2] [µM] | membrane activity in the CX4/LCG channel compared with the CF channel [2]
CC[C@H](C)[C@H](NC(=O)[C@H](CCCCN)NC(=O)[C@@H](NC(=O)[C@@H](N)CCC(N)=O)[C@@H](C)CC)C(=O)N[C@@H](Cc1c[nH]c2ccccc12)C(=O)N[C@@H](Cc1ccccc1)C(=O)N[C@@H](CCC(N)=O)C(=O)N[C@@H](CC(N)=O)C(=O)N[C@@H](CCCNC(=N)N)C(=O)N[C@@H](CCCNC(=N)N)C(=O)N[C@@H](CCSC)C(=O)N[C@@H](CCCCN)C(=O)N[C@@H](Cc1c[nH]c2ccccc12)C(=O)N[C@@H](CCCCN)C(=O)N[C@@H](CCCCN)C(=O)O (H-QIKIWFQNRRMKWKK-OH) | (9.9 ± 1.8) × 10^7 M^−1 | 28 ± 2 | significantly higher
CC(C)C[C@H](NC(=O)[C@H](CC(C)C)NC(=O)[C@H](CCCNC(=N)N)NC(=O)[C@@H](N)CC(C)C)C(=O)N[C@@H](CCCNC(=N)N)C(=O)N[C@@H](Cc1c[nH]c2ccccc12)C(N)=O [LRLLRW] (H-LRLLRW-NH2) | (1.3 ± 0.1) × 10^6 M^−1 | 9 ± 0.9 | significantly higher
CC(C)[C@H](NC(=O)[C@H](CCCCN)NC(=O)[C@H](CCCNC(=N)N)NC(=O)[C@H](CCCCN)NC(=O)[C@H](CCCCN)NC(=O)[C@H](CCCCN)NC(=O)[C@@H]1CCCN1C(=O)[C@H](CCC(N)=O)NC(=O)[C@H](CO)NC(=O)[C@H](Cc1c[nH]c2ccccc12)NC(=O)[C@H](CC(=O)O)NC(=O)[C@@H](NC(=O)[C@H](Cc1c[nH]c2ccccc12)NC(=O)[C@H](Cc1c[nH]c2ccccc12)NC(=O)[C@@H](NC(=O)[C@H](CC(=O)O)NC(=O)[C@H](Cc1c[nH]c2ccccc12)NC(=O)[C@H](Cc1c[nH]c2ccccc12)NC(=O)[C@@H](NC(=O)[C@H](CC(=O)O)NC(=O)[C@@H](N)CCCCN)[C@@H](C)O)[C@@H](C)O)[C@@H](C)O)C(=O)O [Pep‐1] (H-KDTWWDTWWTDWSQPKKKRKV-OH) | (2.8 ± 0.2) × 10^6 M^−1 | 22 ± 16 | significantly higher
CC[C@H](C)[C@H](NC(=O)[C@H](CCCCN)NC(=O)[C@H](CCCCN)NC(=O)[C@H](C)NC(=O)[C@H](CC(C)C)NC(=O)[C@H](C)NC(=O)[C@H](C)NC(=O)[C@H](CC(C)C)NC(=O)[C@H](C)NC(=O)[C@H](CCCCN)NC(=O)[C@H](CC(C)C)NC(=O)[C@H](CC(N)=O)NC(=O)[C@@H](NC(=O)[C@H](CCCCN)NC(=O)CNC(=O)[C@H](CC(C)C)NC(=O)[C@H](CC(C)C)NC(=O)[C@H](Cc1ccc(O)cc1)NC(=O)CNC(=O)[C@H](C)N)[C@@H](C)CC)C(=O)N[C@@H](CC(C)C)C(=O)O [TP10] | – | 0.78 ± 0.09 | significantly higher membrane activity with the CF dye efflux assay

Reference: article PMC12851007 (Angewandte Chemie (International Ed. in English), 2025)
